Measurements published in US8658639B2, “N-substituted-cyclic amino derivative” (Dainippon Sumitomo Pharma Co., Ltd, priority 2009, dated 2014).
Counter-ions that a name gives are not always drawn.

These molecules were tested against T1, Recombinant human renin (Homo sapiens, UniProt P00797) (assay: In vitro renin inhibitory activity assay). Conditions: recombinant human renin 4.2 ng/mL, substrate 4 μM, 37° C., one hour, pH 7.4.
T1 sequence (P00797 67-406): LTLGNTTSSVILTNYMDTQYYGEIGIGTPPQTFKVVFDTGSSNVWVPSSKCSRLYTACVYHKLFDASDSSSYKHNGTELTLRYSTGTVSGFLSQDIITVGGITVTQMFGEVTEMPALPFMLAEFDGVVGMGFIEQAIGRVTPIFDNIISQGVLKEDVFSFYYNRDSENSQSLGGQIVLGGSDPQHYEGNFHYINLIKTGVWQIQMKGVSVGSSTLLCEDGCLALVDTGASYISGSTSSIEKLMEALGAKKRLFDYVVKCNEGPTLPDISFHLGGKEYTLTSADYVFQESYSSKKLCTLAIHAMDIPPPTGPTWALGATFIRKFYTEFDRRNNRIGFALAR
Format: biochemical
Procedure: Experiment 1: In Vitro Renin Inhibitory Activity Assay
Recombinant human renin (4.2 ng/mL) was reacted in 0.1M HEPES buffer (pH 7.4) containing 0.1M NaCl, 1 mM EDTA and 0.1 mg/mL BSA together with a substrate and a test compound at 37° C. for one hour. As the substrate, Arg-Glu(EDANS)-Ile-His-Pro-Phe-His-Leu-Val-Ile-His-Thr-Lys(DABCYL)-Arg (SEQ ID NO: 1) or DABCYL-γ-Abu-Ile-His-Pro-Phe-His-Leu-Val-Ile-His-Thr-EDANS (SEQ ID NO: 2) was added in such an amount so that the final concentration thereof became 4 μM. The elevated fluorescence intensity at the exciting wavelength 340 nm and the fluorescence wavelength 500 nm was measured by a fluorescence plate reader. The concentration of a test compound to be needed to inhibit an enzyme activity in the presence of a test compound in several concentrations by 50% was calculated as an IC50 value. The test compounds were diluted in DMSO and used in this Experiment.

SMILES | IC50 [µM]
CCC(=O)NCCN1C(=O)C(C)(C)Oc2cc(C)c(C(=O)N(C(C)C)C3CCCN(C(=O)OC(C)OC(=O)C4CCOCC4)C3)cc21 (single isomer, unassigned) [Example 88] | 0.0096
CCC(=O)NCCN1C(=O)C(C)(C)Oc2cc(C)c(C(=O)N(C(C)C)[C@@H]3CCCN(C(=O)OC(C)OC(=O)C(C)C)C3)cc21 (stereo partly drawn) [Example 1, 1-(Isobutyryloxy)ethyl (3R)-3-[isopropyl({2,2,7-trimethyl-3-oxo-4-[2-(propionylamino)ethyl]-3,4-dihydro-2H-1,4-benzoxazin-6-yl}carbonyl)amino]piperidine-1-carboxylate] | 0.16
CCC(=O)NCCN1C(=O)C(C)(C)Oc2cc(C)c(C(=O)N(C(C)C)[C@@H]3CCCN(C(=O)OCOC(=O)C(C)C)C3)cc21 [Example 4] | 0.042
CCC(=O)NCCN1C(=O)C(C)(C)Oc2cc(C)c(C(=O)N(C(C)C)[C@@H]3CCCN(C(=O)OCc4oc(=O)oc4-c4ccccc4)C3)cc21 [Example 7] | 0.0013
CCC(=O)NCCN1C(=O)C(C)(C)Oc2cc(C)c(C(=O)N(C(C)C)C3CCCN(C(=O)OC(C)OC(=O)OC(C)C)C3)cc21 (stereo not shown) [Example 8] | 0.41
CCC(=O)NCCN1C(=O)C(C)(C)Oc2cc(C)c(C(=O)N(C(C)C)[C@@H]3CCCN(C(=O)OCOC(=O)OC)C3)cc21 [Example 9] | 0.14
CCC(=O)NCCN1C(=O)C(C)(C)Oc2cc(C)c(C(=O)N(C(C)C)[C@@H]3CCCN(C(=O)OCOC(=O)OCC4CC4)C3)cc21 [Example 11] | 0.46
CCC(=O)NCCN1C(=O)C(C)(C)Oc2cc(C)c(C(=O)N(C(C)C)[C@@H]3CCCN(C(=O)OCOC(=O)OC4CCC4)C3)cc21 [Example 12] | 0.16
CCC(=O)NCCN1C(=O)C(C)(C)Oc2cc(C)c(C(=O)N(C(C)C)[C@@H]3CCCN(C(=O)OCOC(=O)OC4CCOCC4)C3)cc21 [Example 13] | 0.0051
CCC(=O)NCCN1C(=O)C(C)(C)Oc2cc(C)c(C(=O)N(C(C)C)C3CCCN(C(=O)OC(C)OC(=O)CC)C3)cc21 (stereo not shown) [Example 18] | 0.0036
CCC(=O)NCCN1C(=O)C(C)(C)Oc2cc(C)c(C(=O)N(C(C)C)C3CCCN(C(=O)OC(OC(C)=O)C(C)C)C3)cc21 (stereo not shown) [Example 19] | 0.011
CCC(=O)NCCN1C(=O)C(C)(C)Oc2cc(C)c(C(=O)N(C(C)C)C3CCCN(C(=O)OC(OC(=O)CC)C(C)C)C3)cc21 (stereo not shown) [Example 20] | 0.091
CCC(=O)NCCN1C(=O)C(C)(C)Oc2cc(C)c(C(=O)N(C(C)C)[C@@H]3CCCN(C(=O)OC(C)(C)OC(C)=O)C3)cc21 [Example 21, 1-(Acetyloxy)-1-methylethyl (3R)-3-[isopropyl({2,2,7-trimethyl-3-oxo-4-[2-(propionylamino)ethyl]-3,4-dihydro-2H-1,4-benzoxazin-6-yl}carbonyl)amino]piperidine-1-carboxylate] | 0.062
CCC(=O)NCCN1C(=O)C(C)(C)Oc2cc(C(F)(F)F)c(C(=O)N(C(C)C)[C@@H]3CCCN(C(=O)[C@@H](N)C(C)C)C3)cc21 [Example 22, N-Isopropyl-2,2-dimethyl-3-oxo-4-[2-(propionylamino)ethyl]-7-(trifluoromethyl)-N-[(3R)-1-L-valylpiperidin-3-yl]-3,4-dihydro-2H-1,4-benzoxazine-6-carboxamide hydrochloride] | 0.085
CCC(=O)NCCN1C(=O)C(C)(C)Oc2cc(C(F)(F)F)c(C(=O)N(C(C)C)C3CCCN(C(=O)OC(C)OC(=O)C(C)C)C3)cc21 (stereo not shown) [Example 26] | 0.021
CCC(=O)NCCN1C(=O)C(C)(C)Sc2cc(C(F)(F)F)c(C(=O)N(C(C)C)[C@@H]3CCCN(C(=O)OCc4oc(=O)oc4C)C3)cc21 [Example 30, (5-Methyl-2-oxo-1,3-dioxol-4-yl)methyl (3R)-3-[{[2,2-dimethyl-3-oxo-4-[2-(propionylamino)-ethyl]-7-(trifluoromethyl)-3,4-dihydro-2H-1,4-benzothiazin-6-yl]carbonyl}(isopropyl)amino]-piperidine-1-carboxylate] | 0.0022
CCC(=O)NCCN1C(=O)C(C)(C)Oc2cc(C(F)(F)F)c(C(=O)N(C(C)C)[C@@H]3CCCN(Cc4oc(=O)oc4C)C3)cc21 [Example 31, N-Isopropyl-2,2-dimethyl-N-{(3R)-1-[(5-methyl-2-oxo-1,3-dioxol-4-yl)methyl]piperidin-3-yl}-3-oxo-4-[2-(propionylamino)ethyl]-7-(trifluoromethyl)-3,4-dihydro-2H-1,4-benzoxazine-6-carboxamide] | 0.00038

SMILES | IC50 [µM]
CCC(=O)NCCN1C(=O)C2(CCC2)Oc2cc(C)c(C(=O)N(C(C)C)C3CCCN(C(=O)OC(C)OC(C)=O)C3)cc21 (stereo not shown) [Example 33] | 0.0012
CCOC(=O)OC(C)OC(=O)N1CCCC(N(C(=O)c2cc3c(cc2C)OC2(CCC2)C(=O)N3CCNC(=O)CC)C(C)C)C1 (stereo not shown) [Example 34] | 0.14
CCC(=O)NCCN1C(=O)C2(CCC2)Oc2cc(C)c(C(=O)N(C(C)C)C3CCCN(C(=O)OC(OC(C)=O)C(C)C)C3)cc21 (stereo not shown) [Example 35] | 0.0027
CCOC(=O)OC(C)OC(=O)N1CCCC(N(C(=O)c2cc3c(cc2C(F)(F)F)OC(C)(COC)C(=O)N3CCNC(=O)CC)C(C)C)C1 (stereo not shown) [Example 38] | 0.058
Cc1cc2c(cc1C(=O)N(C(C)C)[C@@H]1CCCN(C(=O)OCc3oc(=O)oc3C)C1)N(CCNC(=O)C(F)F)C(=O)C1(CC1)O2 [Example 39] | 0.0036
CCC(=O)NCCN1C(=O)C2(CC2)Oc2cc(C)c(C(=O)N(C(C)C)[C@@H]3CCCN(C(=O)OCc4oc(=O)oc4C)C3)cc21 [Example 40] | 0.0026
CCC(=O)NCCN1C(=O)C2(CC2)Oc2cc(C)c(C(=O)N(C(C)C)C3CCCN(C(=O)OC(C)OC(=O)CC)C3)cc21 (stereo not shown) [Example 41] | 0.068
CCC(=O)NCCN1C(=O)C2(CC2)Oc2cc(C)c(C(=O)N(C(C)C)C3CCCN(C(=O)OC(C)OC(=O)C(C)C)C3)cc21 (stereo not shown) [Example 42] | 0.015
CCC(=O)NCCN1C(=O)C2(CC2)Oc2cc(C)c(C(=O)N(C(C)C)C3CCCN(C(=O)OC(C)OC(=O)C4CCOCC4)C3)cc21 (stereo not shown) [Example 43] | 0.069
Cc1cc2c(cc1C(=O)N(C(C)C)[C@@H]1CCCN(C(=O)OCc3oc(=O)oc3C)C1)N(CCNC(=O)C(F)F)C(=O)C1(CCC1)O2 [Example 44] | 0.0019
CCC(=O)NCCN1C(=O)C2(CCC2)Oc2cc(C)c(C(=O)N(C(C)C)C3CCCN(C(=O)OC(OC(=O)C(C)C)C(C)C)C3)cc21 (stereo not shown) [Example 45] | 0.052
CCC(=O)NCCN1C(=O)C2(CCC2)Oc2cc(C)c(C(=O)N(C(C)C)C3CCCN(C(=O)OC(OC(=O)CC)C(C)C)C3)cc21 (stereo not shown) [Example 46] | 0.074
CCC(=O)NCCN1C(=O)C2(CCC2)Oc2cc(C)c(C(=O)N(C(C)C)C3CCCN(C(=O)OC(C)OC(=O)C(C)C)C3)cc21 (stereo not shown) [Example 47] | 0.076
CCC(=O)NCCN1C(=O)C2(CCC2)Oc2cc(C)c(C(=O)N(C(C)C)C3CCCN(C(=O)OC(C)OC(=O)C4CCOCC4)C3)cc21 (stereo not shown) [Example 48] | 0.34
CCC(=O)NCCN1C(=O)C2(CCC2)Oc2cc(C)c(C(=O)N(C(C)C)C3CCCN(C(=O)OC(C)OC(=O)COC)C3)cc21 (stereo not shown) [Example 49] | 0.014
CCC(=O)NCCN1C(=O)C2(CCC2)Oc2cc(C)c(C(=O)N(C(C)C)C3CCCN(C(=O)OC(C)OC(=O)CC(C)(C)O)C3)cc21 (stereo not shown) [Example 50] | 0.015
CCC(=O)NCCN1C(=O)C(C)(C)Oc2cc(C)c(C(=O)N(C(C)C)[C@@H]3CCCN(C(=O)O[C@@H](C)OC(=O)CC)C3)cc21 [Example 52] | 0.042
